Like-named read-outs stand apart in the source and are kept apart here. Ends that are not written are not given here.
Legend:
HDM2 = HDM2 (Homo sapiens, UniProt Q00987); conditions: literature; cited from earlier work
MDM2, p53 and p21 levels = test: Immunoblot analysis of p53 pathway induction; conditions: 4 μM nutlin-3; Weril, Y79, primary retinoblasts; all cells except 911 cells
Y79 cells = test: Retinoblastoma cell viability, Y79 cells; assay type: cell-based, human; conditions: 72 hours, total racemic drug; read-out: LC50 (the source's name)
Source text: These studies were extended to retinoblastoma cells. […] MDM2, p53 and p21 levels were induced in all cells except for the 911 cells in which p53 was inactivated by the large E1B protein.

Weril and Y79 cells = conditions: lentivirus control-infected cells
[1] = tested on: SJRBL8 retinoblastoma cell line; test: Retinoblastoma cell viability, p53-deficient SJRBL8 cells; conditions: 10 μM to 1 nM, 72 hours
Mdm2^Lox/Lox MEFs = test: Clonal analysis in Mdm2-deficient MEFs (Table 8)
[2] = tested on: p53^LSL MEFs null for Mdm2 and/or MdmX; test: MTT growth/viability assay in p53^LSL MEFs
retinoblastoma cells = conditions: for p53 response: topotecan at LC50 for 1 hour, nutlin-3 treatment
[3] = cited from earlier work
[4] = molecular target: T1, MDMX (amino acid residues 1-185) (Homo sapiens, UniProt O15151); test: Fluorescence polarization p53 peptide binding/competition assay, MDMX
T1 sequence (O15151 1-185): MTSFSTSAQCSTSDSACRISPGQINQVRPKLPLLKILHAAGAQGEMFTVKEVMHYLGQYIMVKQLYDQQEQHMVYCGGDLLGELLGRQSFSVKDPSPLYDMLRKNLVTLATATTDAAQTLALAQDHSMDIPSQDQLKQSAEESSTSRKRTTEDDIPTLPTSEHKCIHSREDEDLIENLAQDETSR

[5] = molecular target: MDM2 (amino acid residues 1-188) (Homo sapiens, UniProt Q00987); test: Fluorescence polarization p53 peptide binding/competition assay, MDM2
Chain of MDM2 (amino acid residues 1-188) (Q00987 1-188): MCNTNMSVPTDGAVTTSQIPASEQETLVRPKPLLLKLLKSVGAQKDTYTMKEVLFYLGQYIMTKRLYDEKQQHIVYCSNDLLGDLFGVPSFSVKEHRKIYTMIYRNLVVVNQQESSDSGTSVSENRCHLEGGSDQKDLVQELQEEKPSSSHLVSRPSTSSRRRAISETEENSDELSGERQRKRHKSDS

Chain of HDM2 (Q00987 whole entry): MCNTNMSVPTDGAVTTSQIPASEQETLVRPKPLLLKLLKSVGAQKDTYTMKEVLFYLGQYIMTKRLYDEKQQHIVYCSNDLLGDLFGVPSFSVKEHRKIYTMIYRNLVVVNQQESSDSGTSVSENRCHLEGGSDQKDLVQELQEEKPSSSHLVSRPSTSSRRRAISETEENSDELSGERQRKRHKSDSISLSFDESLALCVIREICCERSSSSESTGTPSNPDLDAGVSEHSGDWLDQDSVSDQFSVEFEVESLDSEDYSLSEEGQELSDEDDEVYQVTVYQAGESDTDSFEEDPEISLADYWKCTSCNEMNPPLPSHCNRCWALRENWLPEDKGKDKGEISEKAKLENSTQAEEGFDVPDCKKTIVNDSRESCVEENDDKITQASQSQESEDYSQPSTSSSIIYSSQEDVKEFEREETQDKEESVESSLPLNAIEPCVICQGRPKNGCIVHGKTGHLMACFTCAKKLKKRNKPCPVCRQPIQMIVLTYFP

Compound: O=C(O)COc1ccc(C(=O)C=Cc2ccc(Cl)c(Cl)c2)cc1 [Trial B-1, {4-[3-(3,4-dichloro-phenyl)-acryloyl]-phenoxy}-acetic acid]
- affinity / inhibition of p53/HDM2 complex (HDM2): high micromolar affinity

Compound: COc1ccc(C2=N[C@@H](c3ccc(Cl)cc3)[C@@H](c3ccc(Cl)cc3)N2C(=O)N2CCNC(=O)C2)c(OC(C)C)c1 [nutlin-3]
- response to nutlin-3 with MDMX cDNA (Weril cells; Weril cells, MDMX cDNA): more resistant
- response to nutlin-3 with MDMX siRNA (Weril cells; Weril cells, MDMX siRNA): sensitized
- CC50 (Weril cells; read-out: LC50 (50% lethal concentration), 72 hours, total racemic drug): 700 nM
- CC50 (Weril cells; read-out: LC50, Weril cells transfected with control siRNA): 600 nM
- CC50 (Weril cells; read-out: LC50, Weril cells transfected with p53 siRNA): 10000 nM
- MDM2, p53 and p21 levels (MDM2, p53 and p21 levels): induced
- CC50 (Y79 cells): 2000 nM
- proliferation of control-infected cells (Weril and Y79 cells): inhibited the proliferation
- viability [1]: no decrease in viability at any concentration tested
- MdmX rescue of the loss of Mdm2 in MEFs (Mdm2^Lox/Lox MEFs; 1.25 μM or 5 μM racemic nutlin-3): blocked
- number of cells per clone (Mdm2^Lox/Lox MEFs; GFP virus, 1.25 μM racemic nutlin-3, Day 2): 1.0 ± 0^
- number of cells per clone (Mdm2^Lox/Lox MEFs; GFP virus, 1.25 μM racemic nutlin-3, Day 3): 1.5 ± 0.4
- number of cells per clone (Mdm2^Lox/Lox MEFs; GFP virus, 1.25 μM racemic nutlin-3, Day 4): 2.1 ± 0.7
- number of cells per clone (Mdm2^Lox/Lox MEFs; GFP virus, 5.0 μM racemic nutlin-3, Day 2): 1.1 ± 0.2
- number of cells per clone (Mdm2^Lox/Lox MEFs; GFP virus, 5.0 μM racemic nutlin-3, Day 3): 1.5 ± 0.4
- number of cells per clone (Mdm2^Lox/Lox MEFs; Mdm2-GFP virus, 1.25 μM racemic nutlin-3, Day 2): 3.1 ± 1.5
- number of cells per clone (Mdm2^Lox/Lox MEFs; Mdm2-GFP virus, 1.25 μM racemic nutlin-3, Day 3): 6.6 ± 5.2
- number of cells per clone (Mdm2^Lox/Lox MEFs; Mdm2-GFP virus, 1.25 μM racemic nutlin-3, Day 4): 10.0 ± 7.4
- number of cells per clone (Mdm2^Lox/Lox MEFs; Mdm2-GFP virus, 1.25 μM racemic nutlin-3, Day 5): 12.9 ± 8.1
- number of cells per clone (Mdm2^Lox/Lox MEFs; Mdm2-GFP virus, 1.25 μM racemic nutlin-3, Day 6): 14.5 ± 9.3
- number of cells per clone (Mdm2^Lox/Lox MEFs; Mdm2-GFP virus, 5.0 μM racemic nutlin-3, Day 2): 3.0 ± 2.2
- number of cells per clone (Mdm2^Lox/Lox MEFs; Mdm2-GFP virus, 5.0 μM racemic nutlin-3, Day 3): 3.3 ± 1.4
- number of cells per clone (Mdm2^Lox/Lox MEFs; Mdm2-GFP virus, 5.0 μM racemic nutlin-3, Day 4): 3.9 ± 2.1
- number of cells per clone (Mdm2^Lox/Lox MEFs; Mdm2-GFP virus, 5.0 μM racemic nutlin-3, Day 5): 3.1 ± 1.7
- number of cells per clone (Mdm2^Lox/Lox MEFs; Mdm2-GFP virus, 5.0 μM racemic nutlin-3, Day 6): 2.8 ± 2.0
- number of cells per clone (Mdm2^Lox/Lox MEFs; MdmX-GFP virus, 1.25 μM racemic nutlin-3, Day 2): 1.1 ± 0.2
- number of cells per clone (Mdm2^Lox/Lox MEFs; MdmX-GFP virus, 1.25 μM racemic nutlin-3, Day 3): 1.9 ± 0.6
- number of cells per clone (Mdm2^Lox/Lox MEFs; MdmX-GFP virus, 1.25 μM racemic nutlin-3, Day 4): 2.8 ± 1.7
- number of cells per clone (Mdm2^Lox/Lox MEFs; MdmX-GFP virus, 1.25 μM racemic nutlin-3, Day 5): 3.4 ± 2.2
- number of cells per clone (Mdm2^Lox/Lox MEFs; MdmX-GFP virus, 1.25 μM racemic nutlin-3, Day 6): 2.1 ± 1.9
- number of cells per clone (Mdm2^Lox/Lox MEFs; MdmX-GFP virus, 5.0 μM racemic nutlin-3, Day 2): 1.2 ± 0.4
- number of cells per clone (Mdm2^Lox/Lox MEFs; MdmX-GFP virus, 5.0 μM racemic nutlin-3, Day 3): 1.1 ± 0.1
- number of cells per clone (Mdm2^Lox/Lox MEFs; MdmX-GFP virus, 5.0 μM racemic nutlin-3, Day 4): 1.3 ± 0.2
- number of cells per clone (Mdm2^Lox/Lox MEFs; MdmX-GFP virus, 5.0 μM racemic nutlin-3, Day 5): 1.0 ± 0^
- sensitivity of MEFs to nutlin-3 ([2]; MdmX^+/− MEFs after Cre): sensitive
- sensitivity of MEFs to nutlin-3 ([2]; MdmX^−/− MEFs after Cre): insensitive
- effect of nutlin-3 alone (retinoblastoma cells; 10 nM): ineffective alone
- p53 response (retinoblastoma cells): induced a p53 response

Compound: COc1ccc(C2=N[C@@H](c3ccc(Cl)cc3)[C@@H](c3ccc(Cl)cc3)N2C(=O)N2CCNC(=O)C2)c(OC(C)C)c1 [nutlin-3a]
- penetration into the vitreous ([3]; oral and intravenous formulations): poor penetration into the vitreous

Compound: CC[C@@]1(O)C(=O)OCc2c1cc1n(c2=O)Cc2cc3c(CN(C)C)c(O)ccc3nc2-1 [topotecan, Topotecan]
- intraocular penetration ([3]; systemic administration, murine models of retinoblastoma): good intraocular penetration
- p53 response (retinoblastoma cells): induced a p53 response

Compound: FMDYWEGL [SEQ ID NO:4]
- affinity / inhibition of p53/HDM2 complex (HDM2): micromolar affinity

Compound: MPRFMDYWEGLN [SEQ ID NO:2]
- affinity / inhibition of p53/HDM2 complex (HDM2): sub-micromolar affinity
- fold increase in potency compared to wild-type p53-derived peptide (SEQ ID NO:3) (HDM2): 28 fold

Compound: NH2-Gly-Ser-Gly-Ser-Ser-Gln-Glu-Thr-Ala-Ser-Asp-Leu-Ala-Lys-Leu-Ala-Pro-Glu-Asn-OH (H-GSGSSQETASDLAKLAPEN-OH) [p53 mutant]
- MDMX binding [4]: no MDM2 or MDMX binding
- MDM2 binding [5]: no MDM2 or MDMX binding

Compound: chlorofusin
- affinity / inhibition of p53/HDM2 complex (HDM2): micromolar inhibitor
